Results as given in patent US20260007733A1, “Specific Saccharide Fragment for Development of Vibrio Cholerae Vaccines” (priority 2024, published 2026).

Tested on: IgG antibodies in anti-sera immunized with the lipopolysaccharide of the V. cholerae O100 serotype
Assay: Glycan microarray screening of saccharide fragments with rabbit anti-sera
Type: binding
Settings: rabbit sera diluted 1:200; goat anti-rabbit IgG secondary antibodies 1:400; FIG. 9
Experimental: Step 1: The obtained sugar fragment is dissolved in a 50 mM phosphate solution (pH=8.5), printed onto the microarray using a microarray spotter, and incubated at room temperature and 65% humidity overnight to covalently bind the saccharide fragment to the microarray; and after incubation, the microarray is quenched by treatment with a mixed solution of […] solution (pH=9) at 50° C. for 1 h.
Step 2: The glycan microarray is probed with diluted rabbit anti-sera and co-incubated to specifically bind IgG antibodies in the anti-sera to the saccharide fragment, and unbound serum antibodies are washed away; and subsequently, fluorescently labeled secondary antibodies (anti-IgG antibodies) are used to bind the IgG antibodies on the microarray and incubated, and unbound secondary antibodies are washed away.
Synthetic oligosaccharides and LPS were dissolved in a coupling buffer (50 mM sodium phosphate, pH=8.5) for printing onto a “CodeLink” slide (SurModics Co., Ltd.) using an RMA-Arrayer 96 (Rayme China). Then the slide was incubated overnight in a humidifying chamber at 26° C. and 55% humidity. The slide and the microarray were incubated in a quenching buffer ([…] ethanolamine) at 50° C. for 1 h. […]

In the case of `CC(=O)NC1C(O)[C@H](NC(C)=O)C(C)O[C@H]1OCN` (stereo partly shown) [Compound 10], the “antigenicity / recognition by the antibodies (glycan microarray, fluorescence)” value is reported as “cannot be recognized by the antibodies”.
